Assay results as given in US8987467B2, “Substituted pyrazole azetidines as sphingosine receptor modulators” (Allergan, Inc., priority 2013, dated 2015).

Target: T1, human S1P1 receptor (Homo sapiens, UniProt P21453)
T1 construct: expressed in transfected cells; membranes used
Experiment: GTP γ35S binding assay for S1P1 activity
Assay type: biochemical
Details: membranes of cells stably expressing the S1P1 receptor; test concentrations 0.08 to 5,000 nM; 30 min at 25° C.; read-out: S1P1 EC50 (Activity potency: S1P1 receptor from GTP γ35S)
Procedure: Compounds were tested for S1P1 activity using the GTP γ^35S binding assay. These compounds may be assessed for their ability to activate or block activation of the human S1P1 receptor in cells stably expressing the S1P1 receptor.
GTP γ^35S binding was measured in the medium containing (mM) HEPES 25, pH 7.4, MgCl2 10, NaCl 100, dithiothreitol 0.5, digitonin 0.003%, 0.2 nM GTP γ^355, and 5 μg membrane protein in a volume of 150 μl. Test compounds were included in the concentration range from 0.08 to 5,000 nM unless indicated otherwise. Membranes were incubated with 100 μM 5′-adenylylimidodiphosphate for 30 min, and subsequently with 10 μM GDP for 10 min on ice. Drug solutions and membrane were mixed, and then reactions were initiated by adding GTP γ^355 and continued for 30 min at 25° C. Reaction mixtures were filtered over Whatman GF/B filters under vacuum, and washed three times with 3 mL of ice-cold buffer (HEPES 25, pH 7.4, MgCl2 10 and NaCl 100). Filters were dried and mixed with scintillant, and counted for ^35S activity using a β-counter. Agonist-induced GTP γ^355 binding was obtained by subtracting that in the absence of agonist. Binding data were analyzed using a non-linear regression method. In case of antagonist assay, the reaction mixture contained 10 nM S1P in the presence of test antagonist at concentrations ranging from 0.08 to 5000 nM.

T1 sequence (P21453 whole entry): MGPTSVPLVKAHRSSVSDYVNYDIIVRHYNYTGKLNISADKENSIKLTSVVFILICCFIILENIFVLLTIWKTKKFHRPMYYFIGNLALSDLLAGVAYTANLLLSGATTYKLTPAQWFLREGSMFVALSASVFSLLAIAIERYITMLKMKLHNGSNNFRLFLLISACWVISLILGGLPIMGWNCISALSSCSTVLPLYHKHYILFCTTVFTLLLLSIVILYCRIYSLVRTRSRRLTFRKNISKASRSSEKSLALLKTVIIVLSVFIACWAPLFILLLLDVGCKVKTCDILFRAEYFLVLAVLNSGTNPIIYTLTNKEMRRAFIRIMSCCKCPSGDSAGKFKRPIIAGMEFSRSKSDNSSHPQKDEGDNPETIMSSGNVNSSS

EC50 [nM] | SMILES
51 | CCN1N=C(c2nc(-c3cc(F)c(CN4CC(C(=O)O)C4)c(F)c3)no2)CC1c1ccccc1 (stereo not shown) [Compound 4, 1-{4-[5-(1-ethyl-5-phenyl-4,5-dihydro-1H-pyrazol-3-yl)-1,2,4-oxadiazol-3-yl]-2,6-difluorobenzyl}azetidine-3-carboxylic acid]
75 | CCCN1N=C(c2nc(-c3ccc(CN4CC(C(=O)O)C4)cc3)no2)CC1c1ccccc1 (stereo not shown) [Compound 6, 1-{4-[5-(5-phenyl-1-propyl-4,5-dihydro-1H-pyrazol-3-yl)-1,2,4-oxadiazol-3-yl]benzyl}azetidine-3-carboxylic acid]
252 | CCN1N=C(c2nc(-c3ccc(CN4CC(C(=O)O)C4)cc3)no2)CC1c1ccccc1 (stereo not shown) [Compound 1, 1-{4-[5-(1-ethyl-5-phenyl-4,5-dihydro-1H-pyrazol-3-yl)-1,2,4-oxadiazol-3-yl]benzyl}azetidine-3-carboxylic acid]
24 | CCc1cc(-c2noc(C3=NN(CC)C(c4ccccc4)C3)n2)ccc1CN1CC(C(=O)O)C1 (stereo not shown) [Compound 5, 1-{2-ethyl-4-[5-(1-ethyl-5-phenyl-4,5-dihydro-1H-pyrazol-3-yl)-1,2,4-oxadiazol-3-yl]benzyl}azetidine-3-carboxylic acid]
